For orientation: pIC50 means the IC50 on a negative log10 scale, so that one unit is a factor of ten.

The results in this text go back to publication PMC2845622, “An Expanded Self-Antigen Peptidome Is Carried by the Human Lymph As Compared to the Plasma” (PLoS ONE, 2010).

Assay [1] has as its target HLA-DR4 (HLA-DRA*0101,-DRB1*0401) (Homo sapiens, UniProt P01903+P01911, A100K/A169T/F76Y/I96L/K127E/L162R/M171V/N62H/P40V/Q125Y/R42H/S133A/S149N/S66Y/V115G/V209L/W38E). Nature of the assay: Competition fluorescence polarization peptide binding assay, HLA-DR4 with HLA-DM.
The test system of assay [2] is lymph node T cells of HLA-DR1 or HLA-DR4 transgenic mice. Nature of the assay: T cell proliferation (thymidine incorporation) in lymph nodes from peptide immunized mice. The assay is classed as cell-based, mouse. The note with it: mice immunized with 100 µg peptide in complete Freund's adjuvant, lymph nodes 14 days later, 72 h culture with titrated peptide. As to the method:
Finally we asked whether any of the tight-binding peptides, which also were conserved between mouse and human, could be recognized by peripheral T cells. HLA-DR1 or HLA-DR4 transgenic mice were immunized with 100 µg of several of the extracellular matrix peptides in complete Freund's adjuvant in the flanks and nape of the neck. Draining lymph nodes were collected 14 days later and reactive T cells analyzed by proliferation assay with thymidine incorporation.
HLA-DR1 and HLA-DR4 mice were immunized in the flanks and nape of the neck with 100 micrograms of peptide emulsion in Freund's adjuvant. Two weeks later popliteal and axillary lymph nodes were harvested and tested in proliferation assay. Briefly 6×10^5 cells were seeded in a 96 well plate with or without titrated amount of the immunizing peptide for 72 hours. Thymidine ([…]) was added 18 hours before cell harvesting. Cells were harvested on a Tomtec harvester (Model 94-3-468) and incorporated thymidine counted on a liquid scintillation counter (1450 Microbeta Wallac Trilux).
Background: Incorporation of labelled thymidine or its analogues reports DNA synthesis.

For assay [3], the target named is HLA-DR1 (HLA-DRA*0101,-DRB1*0101) (Homo sapiens, UniProt P01903+P01911, A100R/D57E/F55L/F60I/F76Y/I96L/L162R/M171V/P40L/Q125E/R42F/V115G/Y59C). Nature of the assay: Competition fluorescence polarization peptide binding assay, HLA-DR1. The conditions noted are these: competition with Alexa488-HA peptide 25 nM, HLA-DR1 100 nM, 3 days at 37°C, citrate pH 5/5.5; mean of single fit to triplicate values. For orientation: Polarisation of emitted light reports the rotation of a fluorescent probe.

Setting [4] is: competition with Alexa488-HA peptide 25 nM, HLA-DR4 and HLA-DM 100 nM each, 1 mM DTT, 3 days at 37°C, citrate pH 5/5.5, mean of single fit to triplicate values, read-out: DR4 IC50.

pIC50: −log10 of the molar value. Where two headings read alike, the source gives them in different places. Ends that are not written are not given here. Some results are limits rather than exact numbers.

With Ac-DPFRLQSTSQHN [dpFRLQsTsQHn], the pIC50 in assay [1] (setting [4]) is 5.89. In addition, in assay [2], the “Proliferative response of draining lymph node T cells to immunizing peptide” value is given as “significant proliferation index”. In assay [3], Ac-EDTFAHLTPTPT [edtFAHLTPTPT] gave a pIC50 of 5.77. On to Ac-GALLGAPPPLVPAP [gaLLGAPPPLVpap], for which the results for the pIC50 in assay [1] (setting [4]) and in assay [3] were 5.06 and 4.97, respectively. Turning to Ac-HQVSINNTAVMQRL [hqVSINNTAVMqrl], the pIC50 is 5.33 in assay [1] (setting [4]) and 4.38 in assay [3]. In assay [3], Ac-KNFASVQGVSLESG [knFASVQGVSLesg] had a pIC50 of 6.38. Turning to “Ac-NGVVGPTGPVGAAGP-NH2 [ngvVGPTGPVGAagp]”, the pIC50 in assay [1] (setting [4]) is less than 4.00.

Take “Ac-NGVVGPTGPVGAAGPA-NH2 [ngVVGPTGPVGaagpa]”: the pIC50 is less than 4.00 in assay [1] (setting [4]) and 4.74 in assay [3]. For the substance Ac-PGALLGAPPPLVPAP [pgaLLGAPPPLVpap], the pIC50 in assay [1] was less than 4.00.

As to Ac-PQGFQGNPGEPGE [pqgFQGNPGEPGe], the values for the pIC50 in assay [1] (setting [4]) and in assay [3] were less than 4.00 and 6.10, respectively.

For Ac-SPWIDASTAIDA [spWIDASTAIDa], in assay [1] (setting [4]), the pIC50 was 4.22. Same read-out and setting: the value for MGPMGPRGPPGPA-NH2 [MGPMGPRGPpgpa] was less than 4.00. Consider MLQGTSSVLLLWG-NH2 [mLQGTsSVLLlwg], for which the pIC50 in assay [1] (setting [4]) was 4.10; in assay [3] it was 4.20. As for NYAILRNLQP [nYAILRNLQP], the figures for the pIC50 in assay [1] (setting [4]) and in assay [3] were 4.25 and 4.26, respectively.
